In patent US8110565B2, “Enhanced drug delivery in transdermal systems” (Noven Pharmaceuticals, Inc., priority 2001, dated 2012):
Each block holds one compound with its values, some of them ahead of it.

Tests used:
[1] = Flux of ramipril, its ester prodrugs and their combinations from carrier formulations (FIGS. 8, 9); type: in vitro ADME
Description: (§1) Prodrug effects on flux were also studied using an ace inhibitor drug, ramipril. Flux rates of two corresponding prodrugs—ramipril methyl ester and ramipril ethyl ester—were compared prior to combining with the parent drug. […] In either event, the use of an ester prodrug in place of the parent drug can achieve, at the very least, over a 10 fold increase in flux (see ramipril flux (▴) in FIG. 8—only 15% ramipril could be solubilized without forming crystals—versus ramipril ethyl ester flux without enhancers (Δ) in FIG. 9). Use of non-functional or hydroxy functional adhesives are also preferred. However, when both ramipril and a corresponding prodrug are combined in the formulations containing enhancers, an even higher flux can be obtained.

[2] = Amount of ramipril solubilized in the carrier formulation without forming crystals; type: physicochemical
Description: as §1, with “preferred.” for “preferred. However, when both ramipril and a corresponding prodrug are combined in the formulations containing enhancers, an even higher flux can be obtained.”

increase in flux over the parent drug ramipril ([1]; ester without enhancers (FIG. 9) versus 15% ramipril (FIG. 8)): > 10 fold
SMILES: CCOC(=O)C(CCc1ccccc1)NC(C)C(=O)N1C(C(=O)OCC)CC2CCCC21 (stereo not shown) [ramipril ethyl ester]

flux compared with the ethyl ester derivative [1]: fluxed higher
flux higher than the ethyl ester prodrug ([1]; without permeation enhancers, 20% drug, 20% polyacrylate adhesive, 60% polysiloxane adhesive, FIG. 9): 73%
SMILES: CCOC(=O)[C@H](CCc1ccccc1)N[C@@H](C)C(=O)N1[C@H](C(=O)OC)C[C@@H]2CCC[C@@H]21 [ramipril methyl ester]

ramipril that could be solubilized without forming crystals [2]: 15%
SMILES: CCOC(=O)[C@H](CCc1ccccc1)N[C@@H](C)C(=O)N1[C@H](C(=O)O)C[C@@H]2CCC[C@@H]21 [ramipril]
